{"source": "patent US9879325B2", "about": "“Method for predicting the responsiveness a patient to a treatment with an anti-CD20 antibody” (ASSISTANCE PUBLIQUE—HÔPITAUX DE PARIS, priority 2014, dated 2018)", "key": {"[1]": {"system": "HIF-1α", "test": "HIF-1α protein expression (Western blot)", "assay_type": "cell-based", "settings": "non-toxic doses; hypoxia", "method": "Briefly, after exposure to normoxia or hypoxia, cells were washed and lysed in laemmli buffer. Cells exposed to hypoxia were lysed in the hypoxic chamber. Proteins (40 μg) were separated on 8% to 12% SDS polyacrilamide gels and transferred onto polyvinylidene difluoride membranes (Millipore). Membranes were then blotted with antibody corresponding to the indicated proteins. Immunoreactive bands were detected with a horseradish peroxidase (HRP) anti-mouse (Dako) or anti-rabbit (Cell Signaling) by enhanced chemiluminescence (Pierce). When indicated, Western blot quantification was made using ImageJ software."}, "[2]": {"system": "GAPDH-TRAF2 interaction", "test": "GAPDH-TRAF2 co-immunoprecipitation in cells cultured in hypoxia", "assay_type": "cell-based", "settings": "Eμ-Myc and HeLa cells", "method": "(§1) Protein G Sepharose 4B beads (Invitrogen, CA, USA) were first incubated with rabbit anti-TRAF2 or mouse anti-GAPDH antibody or IgG control (Santacruz, Calif., USA) for 4 hours at 4° C. Beads were then incubated overnight with 1 mg of precleared protein lysed in 20 mM Tris-HCl, pH 7.4, 137 mM NaCl, 1 mM EGTA, 10% glycerol, 1% Triton X-100, 1.5 mM MgCl2, 1 μg/μl PMSF, protease and phosphatase inhibitor cocktail (Thermo Scientific). Samples were then washed five times, boiled in Laemmli buffer and analyzed by immunoblotting with the indicated antibodies"}, "[3]": {"system": "CD20 cell surface expression", "test": "CD20 cell surface expression by flow cytometry in Raji cells", "assay_type": "cell-based, human", "settings": "hypoxia 1% O2 48 h, non-toxic doses (0.1 μg/ml)", "method": "Cells (0.5·10^6) cells (in triplicate) were washed 1×PBS and incubated at 4° C. with the monoclonal anti-CD20 (Affymetrix eBioscience) at a concentration of 2.5 μg/ml for 45 minutes. IgG isotypic controls were included. Cells were then washed 2×PBS and incubated at 4° C. for 30 minutes in the dark with a anti-mouse Alexa 488 (1 μg/ml). Then cells were washed twice in PBS and resuspend in 100 μl of PBS containing 0.5 μg/ml of DAPI (4′,6-diamidino-2-phenylindole). Ten thousand events were analyzed immediately by flow cytometry using a MACSQuant Analyzer (Miltenyi Biotec). The mean fluorescence intensity (MFI) obtained for lived (DAPI negative) CD20 positive cells was reported. Histograms represent the average of three independent experiments.\nA total of 1×10^6 cells were washed in PBS and incubated for 45 minutes at 4° C. with the monoclonal anti-CD20 antibody (2.5 μg/ml) (Affymetrix eBioscience). The cells were then washed in PBS and incubated at 4° C. for 30 minutes with an anti-mouse Alexa Fluor 488 (1 μg/ml). […] After washing twice in the saponine-containing buffer, the cells are resuspended in PBS/2% FCS and analyzed by flow cytometry. Immediately afterwards, 10,000 events were analyzed by flow cytometry using a MACSQuant Analyzer (Miltenyi Biotec). The mean fluorescence intensity (MFI) obtained for CD20-low, CD20-high, GAPDH-low, GAPDH-high cells, was reported."}, "[4]": {"system": "NF-κB", "test": "Electrophoretic mobility shift assay (EMSA) of NF-κB binding in Raji cells", "assay_type": "cell-based, human", "settings": "hypoxia 1% O2 24 hours, 0.2 μg/ml", "method": "Total cell extracts from Raji cells treated or not with 0.2 μg/ml of KA and exposed to normoxia or hypoxia 1% O2 for 24 hours were prepared as previously described (Bottero et al., 2003). For mobility shift assay, a NF-κB probe consisting of a synthetic double stranded oligonucleotide containing the KB binding site of the Igκ promoter was used. The end-labeled probe (T4 kinase) was incubated with extracts samples for 20 minutes at 30° C. Complexes were separated by electrophoresis on a 5% non-denaturating polyacrylamide gel in 0.5×TBE. Dried gels were subjected to autoradiography."}, "[5]": {"system": "hif-1α mRNA", "test": "hif-1α mRNA in vivo (qPCR)", "design": "species or system mouse", "settings": "5 mg/kg", "method": "Consequently, we investigated GAPDH-TRAF2 binding in Eμ-Myc and HeLa cells and evidenced that GAPDH could be co-immunprecipitated with TRAF2 when cells are cultured in hypoxia. […] We further tested this interaction in vivo. For that matter Eμ-Myc bearing mice were treated once with PBS or with the covalent inhibitor koningic acid (i.p) and GAPDH/TRAF2 interaction was investigated by co-immunoprecipation in tissues, 24 hours after treatment.\n(§2) Total RNA was extracted from cells using the RNA extraction kit (Qiagen) according to the manufacturer's instructions. Total RNA (2 μg) was added to 20 μl reverse transcription-PCR using the Omniscript kit (Qiagen). The relative mRNA expression level of gapdh, hif-1α, ca9, vegf-α, ldh-a (mouse and human) were obtained by real-time quantification PCR (qPCR), using the TaqMan PCR Master Mix (Eurogentec) and TaqMan assay primer set (Applied Biosystems, Foster City, Calif.) on the 7500 Fast and the Step One (Applied Biosystems) according to the manufacturer's instructions (sequences provided upon request). For in vitro experiment, all samples were normalized to rplp0. All mRNA samples from human tumor tissues were normalized by ppia (cyclophilin-a)."}, "[6]": {"system": "HIF-1", "test": "HIF-1 activity luciferase assay", "assay_type": "cell-based", "settings": "non-toxic doses; hypoxia", "method": "HIF-1 activity. HeLa cells stably expressing the p3HRE-Dptk-LUC vector, which contain three copies of the hypoxia-responsive element (HRE) from the erythropoietin gene (Dayan et al., 2006), were transiently transfected (calcium phosphate) with control vector (pMIG or empty pSUPER vector) or vectors (2 μg) to either overexpress or to silence GAPDH. The following day, transfected cells were exposed to normoxia or hypoxia 1% O2 for 24 hours before cell lysis in a reporter lysis buffer (Promega). It is worth noting that for determination of HIF-1 activity in hypoxia, cells were directly lysed in the hypoxic chamber). The luciferase assay was performed as previously described (Jacquin et al., 2013)."}, "[7]": {"system": "ms4a1 (CD20 encoding gene)", "test": "ms4a1 expression in lymphoma bearing mice", "design": "species or system mouse", "settings": "in vivo inhibition of GAPDH", "method": "To get deeper into the mechanism of CD20 expression, we observed that upon 24 hours of hypoxia, primary Eμ-Myc cells are showing a 2-fold increase in mRNA level of ms4a1 when compared to normoxia. […] We then confirmed the effects of hypoxia on CD20 cell surface expression using the human Burkitt's lymphoma cell line Raji.\nas §2"}, "[8]": {"system": "GAPDH", "test": "Measurement of GAPDH activity", "assay_type": "biochemical", "settings": "non-toxic doses", "method": "Cells were lysed in a buffer containing 10 mmol/L HEPES (pH 7.4), 150 mmol/L NaCl, 5 mmol/L EDTA, 1% NP40, 10 μg/mL aprotinin, 1 mmol/L phenylmethylsulfonyl fluoride and 10 mmol/L leupeptin (buffer A). Lysates were standardized for protein content and incubated with 0.25 mmol/L NAD, 3.3 mmol/L DTT, 13 mmol/L Na4P2O7 (pH 8.5), 26 mmol/L sodium arsenate, and 25 mmol/L D-glyceraldehyde-3-phosphate in a black 96-well plate (Cellstar). GAPDH activity was measured on a fluoroscan at 445 nm as the increase in fluorescence related to NADH accumulation. Activity is expressed as the change in absorbance per milligram of protein."}, "[9]": {"target": "T1, GAPDH/TRAF2 interaction (Mus musculus, UniProt P16858)", "T1 construct": "from tissue; lymph node tumors are collected elsewhere in the text", "T1 sequence (P16858 whole entry)": "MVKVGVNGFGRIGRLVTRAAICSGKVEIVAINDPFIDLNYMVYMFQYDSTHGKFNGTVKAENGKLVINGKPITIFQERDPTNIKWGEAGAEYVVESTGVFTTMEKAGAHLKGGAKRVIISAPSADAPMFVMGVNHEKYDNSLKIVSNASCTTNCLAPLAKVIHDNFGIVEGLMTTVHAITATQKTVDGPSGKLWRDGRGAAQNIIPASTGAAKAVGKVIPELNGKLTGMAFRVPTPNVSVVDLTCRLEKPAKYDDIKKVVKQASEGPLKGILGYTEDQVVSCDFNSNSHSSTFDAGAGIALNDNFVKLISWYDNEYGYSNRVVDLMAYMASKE", "test": "GAPDH/TRAF2 co-immunoprecipitation in tissues of Eμ-Myc bearing mice", "assay_type": "in vivo", "settings": "24 hours after treatment", "method": "as §1, with “Consequently, we investigated GAPDH-TRAF2 binding in Eμ-Myc and HeLa cells and evidenced that GAPDH could be co-immunprecipitated with TRAF2 when cells are cultured in hypoxia. […] We further tested this interaction in vivo. For that matter Eμ-Myc bearing mice were treated once with PBS or with the covalent inhibitor koningic acid (i.p) and GAPDH/TRAF2 interaction was investigated by co-immunoprecipation in tissues, 24 hours after treatment. […] Protein” for “Protein”"}, "[10]": {"system": "NF-κB", "test": "NF-κB activity luciferase assay", "assay_type": "cell-based", "method": "HeLa cells stably expressing GAPDH-V5 or GAPDH double mutant (DM-V5) control (pMIG) were transiently co-transfected by the classical calcium phosphate method with 0.5 μg of a vector encoding cFP and 2 μg of a luciferase reporter gene controlled by a minimal tk promoter ans sex reiterated KB sites (icBx6 tk luc). Forty-eight hours after transfection, cells were exposed to either normoxia or hypoxia 1% O2 for 24 hours before harvesting and analyzing as previously described (Bottero et al., 2003)."}, "[11]": {"system": "DLBCL patients", "test": "Overall survival of DLBCL patients by gapdh mRNA level", "assay_type": "in vivo, human", "source_text": "Thirteen patients who underwent biopsy for DLBCL between May 2007 and May 2011 at the Saint-Louis Hospital (Department of Onco-hematology, Hopital Saint-Louis, Paris, France) were selected. The patients received the necessary information concerning the study and consent was obtained. Morphologic classification of the tumors was assigned according to the World Health Organization (WHO) criteria (Campo et al., 2011). The tumors extensions were staged according to the Ann Arbor stage, and all patients were scored by IPIaa (project, 1993). Follow-up data for all the patients were collected regularly. Among these patients, 8 relapsed (61.5%) and 6 (46%) died.\nData are expressed as mean±standard deviation (SD). Differences in the calculated mean between each group were analyzed using Fisher test (quantitative variable). Survival functions were estimated by the Kaplan-Meier method and compared by the log-rank test. A P value of 0.05 or less was considered to indicate statistical significance. Kaplan-Meier survival curves and box plot representations were performed using “R” software.\n[…] was measured from the date of diagnosis to that of death from any cause or to the stopping date. When the latter date was not reached, the data were censored at the date of the last follow-up evaluation. […]"}}}
{"compound": "CC(C)[C@H]1CC[C@@]2(CO2)[C@H]2C(=O)OCC(C(=O)O)=C[C@H]12", "note": "[Koningic acid]", "values": [{"measurement": "HIF-1α expression", "setting": "[1]", "value": "decrease"}, {"measurement": "GAPDH-TRAF2 interaction", "setting": "[2]", "value": "loss of GAPDH-TRAF2 interaction"}, {"measurement": "hypoxic-dependent increase in CD20 cell surface expression", "setting": "[3]", "value": "prevented this hypoxic-dependent increase in CD20 expression"}, {"measurement": "NF-κB binding to its consensus sequence", "setting": "[4]", "value": "reduced its binding in hypoxia"}, {"measurement": "hif-1α mRNA in vivo", "setting": "[5]", "value": "reduced hif-1α mRNA"}, {"measurement": "HIF-1 activity", "setting": "[6]", "value": "decrease in HIF-1 activity"}, {"measurement": "ms4a1 expression", "setting": "[7]", "value": "reduction in ms4a1 expression"}, {"measurement": "reduction of GAPDH activity", "setting": "[8]", "value": "50-60%"}, {"measurement": "GAPDH/TRAF2 interaction in vivo", "setting": "[9]; 0.5 mg/kg i.p. once", "value": "inactive dose"}, {"measurement": "GAPDH/TRAF2 interaction in vivo", "setting": "[9]; 5 mg/kg i.p. once", "value": "reduced the interaction"}, {"measurement": "NF-κB transcriptional activity", "setting": "[10]; hypoxic HeLa cells", "value": "prevented NF-κB transcriptional activity"}, {"measurement": "NF-κB activity", "setting": "[10]; specific and partial inhibition of GAPDH in hypoxia", "value": "decreases NF-κB activity"}]}
{"compound": "Rituximab-based chemotherapy: anti-CD20 monoclonal antibody rituximab given with chemotherapy to DLBCL patients upon diagnosis", "values": [{"measurement": "patients still alive 350 days following the diagnosis", "setting": "[11]; \"low\" gapdh group", "value": 33, "unit": "%"}, {"measurement": "patients still alive 350 days following the diagnosis", "setting": "[11]; DLBCL with \"high\" levels of gapdh mRNA", "value": 100, "unit": "%"}]}
